“And” between values parts separate entries of the source, which are not always exact repeats. Equal entries are not always repeated.
Target: 5-hydroxytryptamine receptor 2B (Homo sapiens, UniProt P41595)
Sequence (P41595 whole entry): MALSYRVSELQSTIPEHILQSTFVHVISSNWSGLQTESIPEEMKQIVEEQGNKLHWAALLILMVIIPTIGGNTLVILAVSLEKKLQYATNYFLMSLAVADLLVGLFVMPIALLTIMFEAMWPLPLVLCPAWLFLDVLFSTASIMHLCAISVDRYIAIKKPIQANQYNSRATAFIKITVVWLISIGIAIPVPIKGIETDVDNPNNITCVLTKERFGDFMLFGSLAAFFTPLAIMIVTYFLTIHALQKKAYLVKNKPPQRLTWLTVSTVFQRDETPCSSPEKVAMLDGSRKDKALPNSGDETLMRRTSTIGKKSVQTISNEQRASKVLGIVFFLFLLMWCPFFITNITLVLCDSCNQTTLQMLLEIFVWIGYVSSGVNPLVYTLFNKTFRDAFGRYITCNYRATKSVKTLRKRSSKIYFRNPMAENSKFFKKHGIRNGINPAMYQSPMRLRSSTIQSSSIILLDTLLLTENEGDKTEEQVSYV

Row | SMILES | Ki
1 | CN1C[C@@H](NS(=O)(=O)N(C)C)C[C@@H]2c3cccc4c3c(cn4C)C[C@H]21 [MESULERGINE] | 3.3 nM and 1.92 nM
2 | CN(C)CCC(c1ccc(Cl)cc1)c1ccccn1 (stereo not drawn) [clorfeniramina] | 6800 nM and 4170 nM
3 | O=C1NCN(c2ccccc2)C12CCN(CC1COc3ccccc3O1)CC2 (stereo not drawn) [8-(2,3-Dihydro-benzo[1,4]dioxin-2-ylmethyl)-1-phenyl-1,3,8-triaza-spiro[4.5]decan-4-one] | 475 nM and 173 nM
4 | CC(O)C(C)OC(=O)C1CC2c3cccc4c3c(cn4C(C)C)CC2N(C)C1 (stereo not drawn) [CAS_60634-51-7] | 1.53 nM and 0.74 nM
5 | c1ccc2c(N3CCNCC3)cccc2c1 | 0.89 nM
6 | O=C(CCCN1CCC2(CC1)C(=O)NCN2c1ccccc1)c1ccc(F)cc1 [8-[4-(4-fluorophenyl)-4-oxidanylidene-butyl]-1-phenyl-1,3,8-triazaspiro[4.5]decan-4-one] | 592 nM and 317 nM
7 | CCN(CC)C(=O)[C@@H]1C=C2c3cccc4[nH]c(Br)c(c34)C[C@H]2N(C)C1 [LSD,2-Bromo] | 8.09 nM and 7.47 nM
8 | Cc1nc2sccn2c(=O)c1CCN1CCC(=C(c2ccc(F)cc2)c2ccc(F)cc2)CC1 | 1.64 nM and 0.4 nM
